Results reported in patent US20240368214A1, “POSITIVE NMDA-MODULATING COMPOUNDS AND METHODS OF USE THEREOF” (SAGE THERAPEUTICS, INC., priority 2021, published 2024).
Like-named read-outs stand apart in the source and are kept apart here.

Target: T1, recombinant human GluN1/GluN2A receptor (Homo sapiens, UniProt Q05586+Q12879)
T1 construct: expressed in transfected cells; host or cells: HEK293, tetracycline-inducible expression
Experiment: Whole-cell patch clamp of mammalian cells (Syncropatch 384i), NMDA modulation
Format: cell-based
Conditions: HEK293 cells, human GluN1/GluN2A, glutamate 1 μM / glycine 100 μM, -80 mV, peak amplitude increase; for EC50: read-out: EC50
Source text: Whole-Cell Patch Clamp of Mammalian Cells (Syncropatch 384i (Nanion Technologies))
Whole-cell patch clamp electrophysiology was used to investigate the effects of compounds on GluN1/GluN2A N-methyl-D-aspartate (NMDA) glutamate receptors expressed in mammalian cells.
Human embryonic kidney (HEK293) cells expressing the recombinant human GluN1/GluN2A receptor under the control of a tetracycline-inducible expression system were used. Cells were maintained in Dulbecco's Modified Eagle's Medium (DMEM) with 1% glutamine, 10% Tetracycline System Approved fetal bovine serum (FBS), and NMDA inhibitors. Cells were cultured in a humidified 5% CO2 incubator at 37° C. Cells were induced with 50 ng/ml tetracycline 18-24 hours prior to testing. A cocktail of channel blockers was added to the media to prevent cell death.
Cells were 60-80% confluent at the time of harvest. Cells were detached from the flask TrypLE Enzyme Express (Thermo Fisher) at 37° C., and then cold extracellular solution was added to the flask, followed by incubation at 4° C. and then trituration of the cells. The cell solution was then placed on a shaker on the Syncropatch platform at 10° C. with a shake speed of a minimum 200 rpm for at least 30 minutes prior to testing.
Extracellular (EC) solution (in mM) —140 NaCl, 4 KCl, 5 CaCl2, 10 HEPES, 5 Glucose, pH 7.4 with NaOH. All external solutions contained 0.2% DMSO and 0.01% Kolliphor® EL (C5135, Sigma) throughout the experiment.
Intracellular (IC) solution (in mM) —120 CsF, 10 mM EGTA, 10 NaCl, 10 HEPES, 4 NaATP, 2 MgCl2, pH 7.2 with CsOH.
First, the DMSO Master Plate was prepared, in which the DMSO stock of each test compound was serially diluted in 100% DMSO to 1000× the final assay concentration. Immediately prior to assay testing, the compounds were diluted 1:100 by transferring solutions from the DMSO Mast Plate to the Intermediate Plate pre-filled with EC solution using a Biomek FX automated liquid handling system. Compounds were then diluted further with extracellular solution into two pre-incubation plates—1) compound from the Intermediate Plate was mixed with EC solution at a 1:5 dilution to create a 2× Compound Pre-Incubation Plate which was diluted a further 1:2 when added to the Syncropatch for the initial compound pre-incubation. And 2) compound from the Intermediate plate was mixed with EC solution at a 1:10 Dilution to create the 1× Compound Pre-Incubation Plate, which was used for subsequent compound pre-incubations. Finally, a Compound+Agonist Plate was prepared by mixing compound from the 2× Compound Pre-Incubation Plate with 2× concentration of co-agonists in a 1:1 ratio.
Each experiment sequentially included cell catching, sealing, whole-cell formation, liquid application, recording and data acquisition. Whole-cell patch clamp recordings were performed using multi-hole high resistance chips on the SyncroPatch 384i (Nanion Technologies). A steady-state voltage pulse at -80 mV was applied throughout the assay and a 10 second recording window was triggered around 1 second prior to application of co-agonists. Currents were leak corrected and sampled at 5 kHz.
A fast application was used, in which 5 μl co-agonist was rapidly applied at a speed of 30 μl/s and then rapidly removed from the well. To test for modulator activity, the co-agonists glutamate (1 μM) and glycine (100 μM) were applied three times to show activation reproducibility, followed by 120 seconds pre-incubation of test compound alone. The test compound was then re-applied in the presence of co-agonists two times. This was followed by application of the agonist alone, although test compound may not be fully washed from the well prior to this step. Finally, a saturating concentration of co-agonists (glutamate 100 μM/glycine 100 μM) was applied.
The voltage protocol generation data collection and analysis were performed on PatchControll384 and DataControll384. […]

T1 sequence (Q12879 23-1464, other chains not shown): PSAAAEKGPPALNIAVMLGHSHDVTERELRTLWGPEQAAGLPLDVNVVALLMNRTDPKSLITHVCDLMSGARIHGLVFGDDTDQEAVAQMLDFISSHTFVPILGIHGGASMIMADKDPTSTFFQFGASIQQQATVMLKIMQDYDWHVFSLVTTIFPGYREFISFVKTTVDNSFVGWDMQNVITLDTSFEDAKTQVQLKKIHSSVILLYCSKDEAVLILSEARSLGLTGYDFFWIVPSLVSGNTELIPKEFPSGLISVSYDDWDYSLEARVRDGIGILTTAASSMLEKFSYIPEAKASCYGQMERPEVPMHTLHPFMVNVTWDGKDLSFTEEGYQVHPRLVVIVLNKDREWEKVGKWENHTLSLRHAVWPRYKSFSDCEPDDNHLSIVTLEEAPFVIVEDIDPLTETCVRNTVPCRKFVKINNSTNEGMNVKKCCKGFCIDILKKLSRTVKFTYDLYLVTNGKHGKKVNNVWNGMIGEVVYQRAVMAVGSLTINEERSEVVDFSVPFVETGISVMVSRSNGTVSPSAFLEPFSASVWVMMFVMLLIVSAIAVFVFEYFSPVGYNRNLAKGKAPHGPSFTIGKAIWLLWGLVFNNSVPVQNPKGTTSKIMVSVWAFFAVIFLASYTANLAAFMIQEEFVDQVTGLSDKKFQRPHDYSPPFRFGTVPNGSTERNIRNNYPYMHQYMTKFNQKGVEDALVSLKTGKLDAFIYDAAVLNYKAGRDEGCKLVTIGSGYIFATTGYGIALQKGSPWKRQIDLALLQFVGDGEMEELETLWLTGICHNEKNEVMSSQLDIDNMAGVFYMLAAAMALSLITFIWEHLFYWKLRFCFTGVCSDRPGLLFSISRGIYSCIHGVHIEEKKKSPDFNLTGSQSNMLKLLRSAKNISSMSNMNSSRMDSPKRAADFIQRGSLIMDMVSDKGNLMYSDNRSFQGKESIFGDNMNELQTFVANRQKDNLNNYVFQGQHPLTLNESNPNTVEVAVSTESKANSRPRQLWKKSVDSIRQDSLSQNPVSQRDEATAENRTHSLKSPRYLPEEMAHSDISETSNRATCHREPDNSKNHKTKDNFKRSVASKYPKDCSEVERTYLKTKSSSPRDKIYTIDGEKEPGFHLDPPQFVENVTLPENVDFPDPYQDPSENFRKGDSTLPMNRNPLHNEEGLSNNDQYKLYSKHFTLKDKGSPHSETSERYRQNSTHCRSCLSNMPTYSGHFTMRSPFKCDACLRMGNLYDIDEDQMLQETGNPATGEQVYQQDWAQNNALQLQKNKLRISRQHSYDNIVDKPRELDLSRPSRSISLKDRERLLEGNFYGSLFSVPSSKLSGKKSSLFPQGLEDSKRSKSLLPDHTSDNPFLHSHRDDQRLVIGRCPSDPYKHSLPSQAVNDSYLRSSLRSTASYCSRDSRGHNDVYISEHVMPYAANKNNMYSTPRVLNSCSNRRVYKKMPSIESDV

CC[C@@]1(O)CC[C@@H]2CC[C@@H]3[C@H](CC[C@]4(C)[C@@H]([C@H](C)CC[C@@](C)(O)C(F)(F)F)CC[C@@H]34)[C@@]2(C)CC1 [Compound D-1, (1R,3aS,3bR,5aS,8R,10aS,10bS,12aR)-8-ethyl-10a,12a-dimethyl-1-((2R,5R)-6,6,6-trifluoro-5-hydroxy-5-methylhexan-2-yl)octadecahydrocyclohepta[a]cyclopenta[f]naphthalen-8-ol]
Emax (Table D-2): < 100%
EC50 (Table D-2): > 1000 nM

CC[C@]1(O)CC[C@@]2(C)[C@@H](CC[C@H]3[C@@H]4CC[C@H]([C@H](C)CC[C@@H](O)C(C)C)[C@H]4CC[C@@H]32)C1 [Compound F-9, (3S,5S,8S,9S,10S,13R,14R,17R)-3-ethyl-17-((2R,5R)-5-hydroxy-6-methylheptan-2-yl)-10-methylhexadecahydro-1H-cyclopenta[a]phenanthren-3-ol]
EC50 (Table F-2): 100 to 500 nM

CC[C@]1(O)CC[C@@]2(C)[C@@H](CC[C@H]3[C@@H]4[C@@H]5C[C@@H]5[C@H]([C@H](C)CC[C@](C)(O)C(F)(F)F)[C@@]4(C)CC[C@@H]32)C1 [Compound B-3, (2S,4aS,4bS,6aR,7S,7aS,8aR,8bS,8cR,10aS)-2-ethyl-4a,6a-dimethyl-7-((2R,5S)-6,6,6-trifluoro-5-hydroxy-5-methylhexan-2-yl)octadecahydrocyclopropa[4,5]cyclopenta[1,2-a]phenanthren-2-ol]
Emax (Table B-2): > 200%
EC50 (Table B-2): 1 to 100 nM

CC[C@]1(O)CC[C@@]2(C)C(=CC[C@H]3[C@@H]4CC[C@H]([C@@H](CC[C@](C)(O)C(F)(F)F)OC)[C@@]4(C)CC[C@@H]32)C1 [Compound A-14, (3S,8S,9S,10R,13S,14S,17S)-3-ethyl-10,13-dimethyl-17-((1R,4S)-5,5,5-trifluoro-4-hydroxy-1-methoxy-4-methylpentyl)-2,3,4,7,8,9,10,11,12,13,14,15,16,17-tetradecahydro-1H-cyclopenta[a]phenanthren-3-ol]
Emax (Table A-2): > 200%
EC50 (Table A-2): 1 to 100 nM

C[C@H](CC[C@H](O)C1(C#N)CC1)[C@H]1CC[C@H]2[C@@H]3CC[C@H]4C[C@@](C)(O)CC[C@]4(C)C3=CC[C@]12C [Compound C-33, 1-((1S,4R)-1-hydroxy-4-((3S,5S,8S,10S,13R,14S,17R)-3-hydroxy-3,10,13-trimethyl-2,3,4,5,6,7,8,10,12,13,14,15,16,17-tetradecahydro-1H-cyclopenta[a]phenanthren-17-yl)pentyl)cyclopropane-1-carbonitrile]
EC50 (Table C-2): 100 to 500 nM
EC50 (Table E-2): 100 to 500 nM

C[C@H](CCC1(O)CCC(C)(C)CC1)[C@H]1CCC[C@H]2[C@@H]3CC[C@H]4C[C@](O)(C(F)(F)F)CC[C@]4(C)[C@H]3CC[C@]12C [Compound H-3, (2S,4aS,4bS,6aR,7R,10aS,10bR,12aS)-7-((R)-4-(1-hydroxy-4,4-dimethylcyclohexyl)butan-2-yl)-4a,6a-dimethyl-2 (trifluoromethyl)octadecahydrochrysen-2-ol]
EC50 (Table H-2): > 1000 nM

CC[C@]1(O)CC[C@@]2(C)[C@@H](CC[C@@H]3[C@@H]2CC[C@@]2(C)[C@H]3C[C@H]3C[C@]32[C@H](C)CCCC(C)(C)O)C1 [Compound B-8, (2aS,4S,6aS,6bS,8aS,8bS,9aS,10aS,10bR)-4-ethyl-8b-((R)-6-hydroxy-6-methylheptan-2-yl)-6a,8a-dimethyloctadecahydrocyclopropa[3,4]cyclopenta[1,2-a]phenanthren-4-ol]
Emax (Table B-2): 100 to 200%
EC50 (Table B-2): > 1000 nM

CC[C@@]1(O)CC[C@@H]2CC[C@@H]3[C@H](CC[C@]4(C)[C@@H]([C@H](C)CC[C@](C)(O)C(F)(F)F)CC[C@@H]34)[C@@]2(C)CC1 [Compound D-3, (1R,3aS,3bR,5aS,8R,10aS,10bS,12aR)-8-ethyl-10a,12a-dimethyl-1-((2R,5S)-6,6,6-trifluoro-5-hydroxy-5-methylhexan-2-yl)octadecahydrocyclohepta[a]cyclopenta[f]naphthalen-8-ol]
Emax (Table D-2): 100 to 200%
EC50 (Table D-2): 100 to 500 nM

CC[C@]1(O)CC[C@@]2(C)[C@@H](CC[C@@H]3[C@@H]2CC[C@@]2(C)[C@H]3C[C@H]3C[C@]32[C@H](C)CC[C@](C)(O)C(F)(F)F)C1 [Compound B-10, (2aS,4S,6aS,6bS,8aS,8bS,9aS,10aS,10bR)-4-ethyl-6a,8a-dimethyl-8b-((2R,5S)-6,6,6-trifluoro-5-hydroxy-5-methylhexan-2-yl)octadecahydrocyclopropa[3,4]cyclopenta[1,2-a]phenanthren-4-ol]
Emax (Table B-2): 100 to 200%
EC50 (Table B-2): 1 to 100 nM

CC[C@]1(O)CC[C@@]2(C)[C@@H](CC[C@H]3[C@@H]4[C@H]5C[C@H]5[C@H]([C@H](C)CC[C@](C)(O)C(F)(F)F)[C@@]4(C)CC[C@@H]32)C1 [Compound B-5, (2S,4aS,4bS,6aR,7S,7aR,8aS,8bS,8cR,10aS)-2-ethyl-4a,6a-dimethyl-7-((2R,5S)-6,6,6-trifluoro-5-hydroxy-5-methylhexan-2-yl)octadecahydrocyclopropa[4,5]cyclopenta[1,2-a]phenanthren-2-ol]
Emax (Table B-2): > 200%
EC50 (Table B-2): 100 to 500 nM

CC[C@]1(O)CC[C@@]2(C)[C@@H](CC[C@@H]3[C@@H]2CC[C@]2(C)[C@@H]([C@H](C)CC[C@@H](O)C(C)C)[C@H](C)C[C@@H]32)C1 [Compound B-24, (3S,5S,8R,9S,10S,13S,14S,16R,17S)-3-ethyl-17-((2R,5R)-5-hydroxy-6-methylheptan-2-yl)-10,13,16-trimethylhexadecahydro-1H-cyclopenta[a]phenanthren-3-ol]
Emax (Table B-2): > 200%
EC50 (Table B-2): 100 to 500 nM

CC[C@]1(O)CC[C@@]2(C)[C@@H](CC[C@@H]3[C@@H]2CC[C@]2(C)[C@@H]([C@H](C)CC[C@@H](O)C4(C#N)CC4)CC[C@@H]32)C1 [Compound C-3, 1-((1R,4R)-4-((3S,5S,8R,9S,10S,13R,14S,17R)-3-ethyl-3-hydroxy-10,13-dimethylhexadecahydro-1H-cyclopenta[a]phenanthren-17-yl)-1-hydroxypentyl)cyclopropanecarbonitrile]
Emax (Table C-2): > 200%
EC50 (Table C-2): 1 to 100 nM

CC[C@]1(O)CC[C@@]2(C)C(=CC[C@H]3[C@@H]4CCC[C@H]([C@H](C)CC[C@@](C)(O)C(F)(F)F)[C@@]4(C)CC[C@@H]32)C1 [Compound H-10, (2S,4aR,4bS,6aR,7R,10aS,10bS)-2-ethyl-4a,6a-dimethyl-7-((2R,5R)-6,6,6-trifluoro-5-hydroxy-5-methylhexan-2-yl)-1,2,3,4,4a,4b,5,6,6a,7,8,9,10,10a,10b,11-hexadecahydrochrysen-2-ol]
EC50 (Table H-2): 500 to 1000 nM
